For one series, the target named is Nav1.8 (Homo sapiens, UniProt Q9Y5Y9). The series can be described thus: Selectivity for other ion channels: Nav1.8. The series is classed as cell-based.
The nature of series [1]: Metabolism stability test in liver microsomes. The series is classed as in vitro ADME. Conditions: human liver microsomes. Here is the method: Buffer A: 1 L solution of 100 mM potassium dihydrogen phosphate containing 1 mM EDTA (Sigma, V900157-100G) was prepared.
Buffer B: 1 L solution of 100 mM dipotassium hydrogen phosphate containing 1 mM EDTA was prepared.
Buffer C: 700 mL of buffer B was taken out and titrated with buffer A to pH 7.4.
2.1 10 μl of 10 mM compound to be tested and 10 μl of 10 mM ketanserin were taken out and 190 μl of pure acetonitrile was added to each of them to prepare 500 μM compound to be tested and ketanserin, respectively.
2.2 20 μl (20 mg/mL) of liver microsomes (Corning Lot. NO. 4133007) stock solution was added to 513.4 μl of buffer C on wet ice. 0.75 mg/mL liver microsomal solution was obtained.
2.3 1.5 μl of each of the above-mentioned compound to be tested and ketanserin solution was added to 498.5 μl of liver microsomal solution (0.7 5 mg/mL) respectively on wet ice. 1.5 μM mixed solution of compound to be tested and 1.5 μM mixed solution of ketanserin were obtained.
2.4 At the time points 0, 5, 15, 30, 45, and 60 min, 30 μl of the mixed solution of compound to be tested and 30 μl of the mixed solution of ketanserin were dispensed into the reaction plate on wet ice, respectively.
2.5 5 mg reduced coenzyme II (Roche, 10621706001) was weighed and dissolved in 1 mL of buffer C. 6 mM reduced coenzyme II solution was obtained. The reduced coenzyme II solution was dispensed into the reaction plate.
2.6 Imipramine was dissolved to give a 10 mM solution. 10 μl imipramine solution was added to 100 mL of blank acetonitrile to generate the internal reference.
2.7 At 0 min, 135 μL of iced acetonitrile (Merck (Lot. 1778229518)) containing the internal reference was added to each well and then 15 μL of buffer C was added.
2.8 The reaction plate was placed into a 37° C. water bath incubator for 5 min. In the reaction plate, 15 μL of reduced coenzyme II solution was added to each well to initiate the reaction, and the time keeping was started. At the time points of 5, 15, 30, 45, and 60 min, 135 μL of iced acetonitrile containing the internal reference was added to each well to terminate the reaction.
2.9 The reaction plate was sealed with an aluminum film, placed on a vibration mixer and shaken at 500 rpm for 5 min. The plate was then centrifuged in a centrifuge at 3750 rp for 15 min.
2.10 The sample was diluted with pure water in accordance with the ratio of 1:1 and detected by LC/MS. […]
Wherein, the K value and the proportional factor were calculated by those skilled in the art according to the methods described in the prior art and contained in the instructions of the liver microsome product.
On the technique in general: Microsomes from liver hold many membrane-bound enzymes, among them those of drug oxidation.

Another series addresses Nav1.2 (Homo sapiens, UniProt Q99250). Nature of the series: Selectivity for other ion channels: Nav1.2. Type of series: cell-based.
The next series in a line: Solubility experiment. Type of series: physicochemical. Conditions: listed as free base sample. Here is the method: The solubility of crystal forms A, D, E-1, E-3, F and free base sample in buffer of 0.1M HCl, pH 4.5, pH 6.8 and water was tested at room temperature. In the test, the standard curves of free base sample and five crystal forms were plotted. Subsequently, 6 mg of API and five crystal form samples were weighed, respectively, and 2 ml of the solvent was added, the mixture was shaken at room temperature for 4 h, then ultrasonicated for 30 min, centrifuged, and the supernatant was taken out, filtered through a 0.45 μm filter and injected, and the solubility was measured, the results are shown in Table 28 (concentration is in mg/ml).

Structures are written as SMILES.

Nav1.2, sequence (Q99250 whole entry): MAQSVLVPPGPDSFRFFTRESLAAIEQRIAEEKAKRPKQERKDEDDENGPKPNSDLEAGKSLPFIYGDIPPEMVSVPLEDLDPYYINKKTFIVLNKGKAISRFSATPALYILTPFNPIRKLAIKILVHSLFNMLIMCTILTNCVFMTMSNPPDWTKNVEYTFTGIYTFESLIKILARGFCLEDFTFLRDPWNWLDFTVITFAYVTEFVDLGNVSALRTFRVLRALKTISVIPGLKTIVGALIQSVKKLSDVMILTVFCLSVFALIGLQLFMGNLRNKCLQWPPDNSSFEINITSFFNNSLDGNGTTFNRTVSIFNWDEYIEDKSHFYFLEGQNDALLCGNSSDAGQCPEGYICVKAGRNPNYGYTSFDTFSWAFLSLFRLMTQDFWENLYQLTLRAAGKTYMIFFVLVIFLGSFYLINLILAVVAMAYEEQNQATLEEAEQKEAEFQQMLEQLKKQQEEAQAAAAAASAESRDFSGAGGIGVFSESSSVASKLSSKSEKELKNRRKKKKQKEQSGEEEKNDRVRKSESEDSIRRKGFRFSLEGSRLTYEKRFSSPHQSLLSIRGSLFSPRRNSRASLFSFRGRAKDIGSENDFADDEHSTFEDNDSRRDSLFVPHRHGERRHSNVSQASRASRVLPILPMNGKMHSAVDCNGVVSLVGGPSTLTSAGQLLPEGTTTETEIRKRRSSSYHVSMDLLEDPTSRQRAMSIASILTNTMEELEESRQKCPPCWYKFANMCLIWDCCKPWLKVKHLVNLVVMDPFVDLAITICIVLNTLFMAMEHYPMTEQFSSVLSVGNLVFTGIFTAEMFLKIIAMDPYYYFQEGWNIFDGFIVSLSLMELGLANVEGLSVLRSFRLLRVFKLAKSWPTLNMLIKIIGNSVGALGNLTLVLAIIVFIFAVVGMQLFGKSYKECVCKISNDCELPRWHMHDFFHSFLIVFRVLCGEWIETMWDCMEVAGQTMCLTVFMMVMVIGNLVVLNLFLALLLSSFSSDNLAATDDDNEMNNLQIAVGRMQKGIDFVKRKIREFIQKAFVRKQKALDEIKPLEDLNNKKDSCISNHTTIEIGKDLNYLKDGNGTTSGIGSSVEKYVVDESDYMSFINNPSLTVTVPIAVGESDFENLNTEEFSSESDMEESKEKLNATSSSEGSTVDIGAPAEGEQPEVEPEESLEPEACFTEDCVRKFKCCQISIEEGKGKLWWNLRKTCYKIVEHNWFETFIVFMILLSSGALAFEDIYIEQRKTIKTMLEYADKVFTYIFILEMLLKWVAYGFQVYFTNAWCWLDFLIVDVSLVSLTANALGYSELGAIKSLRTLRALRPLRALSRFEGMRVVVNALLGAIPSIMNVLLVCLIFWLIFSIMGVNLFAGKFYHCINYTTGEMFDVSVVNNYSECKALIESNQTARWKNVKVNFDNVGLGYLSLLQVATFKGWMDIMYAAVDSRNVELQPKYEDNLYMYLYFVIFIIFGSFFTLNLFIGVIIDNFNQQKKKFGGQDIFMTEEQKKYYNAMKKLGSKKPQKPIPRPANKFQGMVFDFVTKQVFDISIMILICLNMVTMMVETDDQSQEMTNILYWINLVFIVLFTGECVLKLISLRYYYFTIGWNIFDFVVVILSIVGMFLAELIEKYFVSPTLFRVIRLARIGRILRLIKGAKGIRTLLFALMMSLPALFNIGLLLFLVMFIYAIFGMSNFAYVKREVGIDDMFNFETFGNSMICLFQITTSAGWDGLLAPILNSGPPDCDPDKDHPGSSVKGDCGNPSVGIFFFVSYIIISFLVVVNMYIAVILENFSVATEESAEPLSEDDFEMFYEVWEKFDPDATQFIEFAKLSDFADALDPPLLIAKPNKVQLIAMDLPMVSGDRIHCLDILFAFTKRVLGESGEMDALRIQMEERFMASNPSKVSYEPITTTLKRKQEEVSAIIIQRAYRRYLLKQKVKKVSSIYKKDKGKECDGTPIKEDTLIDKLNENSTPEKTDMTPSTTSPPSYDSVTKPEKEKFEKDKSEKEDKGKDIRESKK
Nav1.8, sequence (Q9Y5Y9 whole entry): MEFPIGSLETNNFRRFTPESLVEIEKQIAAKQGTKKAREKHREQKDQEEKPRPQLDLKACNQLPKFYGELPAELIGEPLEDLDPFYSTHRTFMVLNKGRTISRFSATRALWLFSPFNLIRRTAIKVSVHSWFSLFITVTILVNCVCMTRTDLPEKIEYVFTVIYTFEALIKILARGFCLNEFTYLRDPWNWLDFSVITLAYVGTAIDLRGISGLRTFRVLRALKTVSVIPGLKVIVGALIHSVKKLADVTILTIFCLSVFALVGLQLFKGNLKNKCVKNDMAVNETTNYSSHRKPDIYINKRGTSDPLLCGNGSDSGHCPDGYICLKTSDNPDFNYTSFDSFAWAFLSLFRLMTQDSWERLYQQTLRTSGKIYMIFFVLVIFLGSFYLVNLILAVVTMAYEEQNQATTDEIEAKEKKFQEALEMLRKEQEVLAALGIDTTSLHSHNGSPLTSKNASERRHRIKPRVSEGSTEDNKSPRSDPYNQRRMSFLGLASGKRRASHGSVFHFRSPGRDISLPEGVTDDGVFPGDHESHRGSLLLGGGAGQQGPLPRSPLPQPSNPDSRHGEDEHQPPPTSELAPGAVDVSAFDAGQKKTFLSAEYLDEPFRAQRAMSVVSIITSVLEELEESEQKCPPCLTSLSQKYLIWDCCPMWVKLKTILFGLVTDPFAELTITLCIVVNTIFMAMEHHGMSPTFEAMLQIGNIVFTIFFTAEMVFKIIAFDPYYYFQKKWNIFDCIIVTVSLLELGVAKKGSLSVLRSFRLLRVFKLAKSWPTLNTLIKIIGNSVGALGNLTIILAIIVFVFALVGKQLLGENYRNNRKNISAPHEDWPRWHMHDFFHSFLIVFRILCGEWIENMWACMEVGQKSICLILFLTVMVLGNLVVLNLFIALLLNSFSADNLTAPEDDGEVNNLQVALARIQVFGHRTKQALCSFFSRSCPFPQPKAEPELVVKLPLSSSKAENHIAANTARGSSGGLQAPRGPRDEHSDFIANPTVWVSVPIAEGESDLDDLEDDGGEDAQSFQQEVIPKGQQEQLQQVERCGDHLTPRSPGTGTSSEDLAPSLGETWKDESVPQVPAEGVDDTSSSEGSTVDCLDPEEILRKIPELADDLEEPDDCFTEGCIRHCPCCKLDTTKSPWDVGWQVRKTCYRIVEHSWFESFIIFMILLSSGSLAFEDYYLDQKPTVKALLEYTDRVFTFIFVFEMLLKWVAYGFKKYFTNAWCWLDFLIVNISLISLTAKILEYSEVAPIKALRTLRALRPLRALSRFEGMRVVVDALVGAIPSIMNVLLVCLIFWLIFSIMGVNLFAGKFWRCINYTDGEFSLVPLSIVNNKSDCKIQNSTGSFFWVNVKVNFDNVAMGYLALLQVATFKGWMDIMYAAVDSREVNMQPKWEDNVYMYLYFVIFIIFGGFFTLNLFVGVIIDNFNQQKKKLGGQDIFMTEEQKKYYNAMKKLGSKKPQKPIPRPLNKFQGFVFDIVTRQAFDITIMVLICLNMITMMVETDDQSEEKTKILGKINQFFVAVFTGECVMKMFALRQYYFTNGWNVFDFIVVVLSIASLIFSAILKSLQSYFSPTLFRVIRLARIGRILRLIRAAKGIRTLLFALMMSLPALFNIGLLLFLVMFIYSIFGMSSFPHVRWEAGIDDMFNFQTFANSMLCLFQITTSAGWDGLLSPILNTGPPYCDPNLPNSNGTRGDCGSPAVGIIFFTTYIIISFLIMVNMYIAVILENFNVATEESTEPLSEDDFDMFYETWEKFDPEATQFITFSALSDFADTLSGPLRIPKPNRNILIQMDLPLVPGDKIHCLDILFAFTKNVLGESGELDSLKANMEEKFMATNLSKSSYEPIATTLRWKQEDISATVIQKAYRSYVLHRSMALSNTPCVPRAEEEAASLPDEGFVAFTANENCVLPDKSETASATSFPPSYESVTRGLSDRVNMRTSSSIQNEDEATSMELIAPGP

For the compound `Cc1cc(N2CCN(Cc3cc(F)c(C(=O)NS(=O)(=O)C4CC4)cc3Cl)CC2)ccc1Cl` [the free base of formula X compound, 5-chloro-4-((4-(4-chloro-3-methylphenyl)piperazin-1-yl)methyl)-N-(cyclopropylsulfonyl)-2-fluorobenzamide], the IC50 (as a rule, the concentration that inhibits the measured activity by half) against Nav1.8 is 18900 nM. For the same compound, in series [1], the “Clearance ratio” value was determined as 20.12 mL/min/kg and the “metabolic stability” value is listed as “good metabolic stability”. 9600 nM corresponded to half-maximal inhibition against Nav1.2 (IC50). The “Solubility (mg/mL) 0.1M HCl” value in “Solubility experiment” (0.1M HCl, room temperature) was found to be 0.065 mg/mL. Further, the “Solubility (mg/mL) pH4.5” value in “Solubility experiment” (buffer pH 4.5, room temperature) is on record as 0.001 mg/mL. Besides, in “Solubility experiment” (buffer pH 6.8, room temperature), the “Solubility (mg/mL) pH6.8” value amounted to 0.021 mg/mL. Moreover, the “Solubility (mg/mL) H2O” value in the series “Solubility experiment” (water, room temperature) worked out at 0.027 mg/mL.

Source of the values: patent publication US10947202B2, “Sodium ion channel inhibitors and pharmaceutically acceptable salts and polymorphs thereof and uses thereof” (SHANGHAI HAIYAN PHARMACEUTICAL TECHNOLOGY CO., LTD., priority 2017, dated 2021).
